Measured values from ChEMBL document CHEMBL4052677, “A small-molecule screen identifies the antitrypanosomal agent suramin and analogues NF023 and NF449 as inhibitors of STAT5a/b” (Bioorg Med Chem Lett, 2017).
Activity calls are given as the source filed them. The calls are words filed in the database; no cut-off is given here.

Columns and labels:
[1] = target: T1, Signal transducer and activator of transcription 5A (Homo sapiens) (UniProt P42229); test: (§1) Inhibition of 5-carboxyfluorescein-GpYLVLDKW-OH binding to C-terminal 6x-His-tagged and an N-terminal maltose-binding protein-tagged STAT5A SH2 domain (137 to 507 residues) (unknown origin) expressed in Escherichia coli Rosetta BL21 DE3 at 50 uM pre-incubated for 1 hr before fluorescent-labelled peptide addition by fluorescence polarization assay
T1 sequence (whole entry): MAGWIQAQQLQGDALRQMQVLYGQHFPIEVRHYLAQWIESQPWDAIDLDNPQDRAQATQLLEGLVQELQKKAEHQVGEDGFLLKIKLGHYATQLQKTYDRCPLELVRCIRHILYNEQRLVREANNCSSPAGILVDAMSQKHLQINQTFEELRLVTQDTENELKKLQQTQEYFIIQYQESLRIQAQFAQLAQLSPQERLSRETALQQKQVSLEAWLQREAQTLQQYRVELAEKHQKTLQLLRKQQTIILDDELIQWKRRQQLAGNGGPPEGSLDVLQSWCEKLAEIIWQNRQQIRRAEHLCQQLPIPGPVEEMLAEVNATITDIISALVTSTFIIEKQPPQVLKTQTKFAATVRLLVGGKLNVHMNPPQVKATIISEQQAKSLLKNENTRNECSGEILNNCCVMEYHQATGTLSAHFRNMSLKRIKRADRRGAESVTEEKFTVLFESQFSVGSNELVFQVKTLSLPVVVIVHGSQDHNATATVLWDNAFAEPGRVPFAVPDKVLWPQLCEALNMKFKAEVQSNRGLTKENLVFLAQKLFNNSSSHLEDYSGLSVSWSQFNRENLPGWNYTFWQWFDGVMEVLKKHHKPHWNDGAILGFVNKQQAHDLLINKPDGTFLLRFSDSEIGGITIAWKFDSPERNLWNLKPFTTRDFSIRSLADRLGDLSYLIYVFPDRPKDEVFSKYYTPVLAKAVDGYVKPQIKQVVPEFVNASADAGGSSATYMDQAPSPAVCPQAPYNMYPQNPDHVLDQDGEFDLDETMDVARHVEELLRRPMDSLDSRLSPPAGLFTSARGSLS

[2] = target: T2, Signal transducer and activator of transcription 5A (Homo sapiens, UniProt P42229); test: as §1, with “DE3” for “DE3 at 50 uM”
T2 sequence (P42229 whole entry): T1 sequence (whole entry)

[3] = target: T3, Signal transducer and activator of transcription 1-alpha/beta (Homo sapiens, UniProt P42224); test: Inhibition of 5-carboxyfluorescein-GpYDKPHVL-OH binding to STAT1 (unknown origin) pre-incubated for 1 hr before fluorescent-labelled peptide addition by fluorescence polarization assay
T3 sequence (P42224 whole entry): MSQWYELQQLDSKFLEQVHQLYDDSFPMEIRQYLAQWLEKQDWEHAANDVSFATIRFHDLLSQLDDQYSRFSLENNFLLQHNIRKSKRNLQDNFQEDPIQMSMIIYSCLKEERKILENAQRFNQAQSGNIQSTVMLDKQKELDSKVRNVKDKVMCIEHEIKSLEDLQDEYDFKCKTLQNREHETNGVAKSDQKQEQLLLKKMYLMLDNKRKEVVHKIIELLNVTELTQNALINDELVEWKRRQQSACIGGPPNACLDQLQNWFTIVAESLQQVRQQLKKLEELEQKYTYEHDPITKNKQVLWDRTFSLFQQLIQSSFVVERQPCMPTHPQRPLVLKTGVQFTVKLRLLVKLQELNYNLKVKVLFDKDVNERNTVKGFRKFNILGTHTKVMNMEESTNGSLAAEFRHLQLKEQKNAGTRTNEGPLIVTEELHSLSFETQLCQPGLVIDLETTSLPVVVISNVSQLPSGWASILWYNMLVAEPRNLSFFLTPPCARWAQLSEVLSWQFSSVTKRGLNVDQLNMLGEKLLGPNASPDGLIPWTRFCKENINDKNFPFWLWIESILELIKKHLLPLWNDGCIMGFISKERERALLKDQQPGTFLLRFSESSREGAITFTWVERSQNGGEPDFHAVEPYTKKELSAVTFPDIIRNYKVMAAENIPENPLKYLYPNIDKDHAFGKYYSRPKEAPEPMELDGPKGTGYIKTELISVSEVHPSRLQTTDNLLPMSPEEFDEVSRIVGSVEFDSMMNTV

[4] = target: Signal transducer and activator of transcription 3 (Mus musculus, UniProt P42227); test: Inhibition of 5-carboxyfluorescein-GpYLPQTV-NH2 binding to mouse STAT3 (127 to 722 residues) expressed in Escherichia coli Rosetta BL21 DE3 pre-incubated for 1 hr before fluorescent-labelled peptide addition by fluorescence polarization assay
Signal transducer and activator of transcription 3, sequence (P42227 whole entry, the tested form may be a part): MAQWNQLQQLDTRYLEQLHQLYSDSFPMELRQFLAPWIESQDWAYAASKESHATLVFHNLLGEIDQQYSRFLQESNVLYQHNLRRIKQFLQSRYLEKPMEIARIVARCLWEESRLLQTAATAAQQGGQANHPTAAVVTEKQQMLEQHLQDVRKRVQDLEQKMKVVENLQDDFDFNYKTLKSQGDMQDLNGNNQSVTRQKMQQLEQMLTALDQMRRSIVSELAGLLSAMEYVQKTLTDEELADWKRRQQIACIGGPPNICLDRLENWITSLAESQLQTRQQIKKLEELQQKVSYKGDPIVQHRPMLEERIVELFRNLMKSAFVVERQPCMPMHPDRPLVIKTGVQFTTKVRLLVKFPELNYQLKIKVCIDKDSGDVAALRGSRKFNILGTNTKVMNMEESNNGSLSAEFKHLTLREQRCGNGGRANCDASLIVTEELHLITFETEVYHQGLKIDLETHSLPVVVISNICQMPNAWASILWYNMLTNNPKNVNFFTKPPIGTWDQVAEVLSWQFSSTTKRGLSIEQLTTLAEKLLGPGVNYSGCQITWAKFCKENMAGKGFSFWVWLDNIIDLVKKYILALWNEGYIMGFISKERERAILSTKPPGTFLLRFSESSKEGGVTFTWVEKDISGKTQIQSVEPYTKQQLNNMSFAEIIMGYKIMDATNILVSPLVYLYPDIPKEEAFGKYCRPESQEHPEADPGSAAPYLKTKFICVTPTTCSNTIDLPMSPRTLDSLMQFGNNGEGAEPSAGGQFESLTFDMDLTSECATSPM

[5] = target: T4, Signal transducer and activator of transcription 5B (Homo sapiens, UniProt P51692); test: Inhibition of 5-carboxyfluorescein-GpYLVLDKW-OH binding to STAT5B SH2 domain (unknown origin) pre-incubated for 1 hr before fluorescent-labelled peptide addition by fluorescence polarization assay
T4 sequence (P51692 whole entry): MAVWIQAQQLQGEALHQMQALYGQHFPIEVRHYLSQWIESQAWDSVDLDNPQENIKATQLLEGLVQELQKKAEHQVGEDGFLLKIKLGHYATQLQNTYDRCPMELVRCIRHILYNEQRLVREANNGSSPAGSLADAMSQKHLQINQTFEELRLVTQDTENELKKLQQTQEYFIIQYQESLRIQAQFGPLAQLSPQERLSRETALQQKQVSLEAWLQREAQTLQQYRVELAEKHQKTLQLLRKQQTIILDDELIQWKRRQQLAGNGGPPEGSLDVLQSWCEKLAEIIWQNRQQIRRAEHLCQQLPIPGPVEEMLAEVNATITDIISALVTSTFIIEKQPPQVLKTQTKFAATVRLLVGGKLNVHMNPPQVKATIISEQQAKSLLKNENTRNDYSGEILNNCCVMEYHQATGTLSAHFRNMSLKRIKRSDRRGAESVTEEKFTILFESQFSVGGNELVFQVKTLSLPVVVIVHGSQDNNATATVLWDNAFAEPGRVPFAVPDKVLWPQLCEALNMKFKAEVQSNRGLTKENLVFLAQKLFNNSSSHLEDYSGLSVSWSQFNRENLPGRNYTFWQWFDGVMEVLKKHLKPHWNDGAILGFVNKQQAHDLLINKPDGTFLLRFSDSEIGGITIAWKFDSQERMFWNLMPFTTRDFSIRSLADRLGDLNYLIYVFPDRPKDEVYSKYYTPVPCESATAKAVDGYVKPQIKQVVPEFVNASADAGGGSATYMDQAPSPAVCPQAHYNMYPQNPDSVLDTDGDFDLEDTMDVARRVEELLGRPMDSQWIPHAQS

Structure (SMILES)	inhibition [1]	IC50 [2] [µM]	IC50 [3] [µM]	IC50 [4] [µM]	IC50 [5] [µM]
Cc1ccc(C(=O)Nc2ccc(S(=O)(=O)O)c3cc(S(=O)(=O)O)cc(S(=O)(=O)O)c23)cc1NC(=O)c1cccc(NC(=O)Nc2cccc(C(=O)Nc3cc(C(=O)Nc4ccc(S(=O)(=O)O)c5cc(S(=O)(=O)O)cc(S(=O)(=O)O)c45)ccc3C)c2)c1 [SURAMIN HEXASODIUM]	Active	9.4	9.1	> 100	10.4
O=C(Nc1cc(C(=O)Nc2ccc(S(=O)(=O)O)cc2S(=O)(=O)O)cc(C(=O)Nc2ccc(S(=O)(=O)O)cc2S(=O)(=O)O)c1)Nc1cc(C(=O)Nc2ccc(S(=O)(=O)O)cc2S(=O)(=O)O)cc(C(=O)Nc2ccc(S(=O)(=O)O)cc2S(=O)(=O)O)c1	Active	1.4	7.9	> 100	2.5
O=C(Nc1cccc(C(=O)Nc2ccc(S(=O)(=O)O)c3cc(S(=O)(=O)O)cc(S(=O)(=O)O)c23)c1)Nc1cccc(C(=O)Nc2ccc(S(=O)(=O)O)c3cc(S(=O)(=O)O)cc(S(=O)(=O)O)c23)c1	Active	8.8	33.2	> 100	12.7
